Experimental data from patent US20110003866A1, “NOVEL 2-DIMETHYLAMINO-3-AMIDO-6-AMINO-PYRIDINE DERIVATIVES USEFUL AS POTASSIUM CHANNEL ACTIVATORS” (priority 2007, published 2011).

Target: T1, human Kv72+3 channels (Homo sapiens, UniProt O43525+O43526)
T1 construct: expressed in transfected cells; host or cells: HEK293
Test: patch-clamp, HEK293 cell lines stably expressing human Kv7.2+3 channels
Type: cell-based
Conditions: conc. 0.03 μM, −30 mV, 20 ms; current relative to baseline current defined as 100%
Description: The effect obtained by these channel activators is described as a percentage increase in baseline current at a given concentration. The baseline current is defined as 100%, and an increase in current is expressed relative to this, i.e. an increase from 1 nA to 1.2 nA is reported as 120%.

Going from CN(C)c1nc(NCc2ccc(F)cc2)ccc1NC(=O)Cc1ccc(F)c(F)c1 [Compound 1, N-[2-Dimethylamino-6-(4-fluoro-benzylamino)-pyridin-3-yl]-2-(3,4-difluoro-phenyl)-acetamide] to CN(C)c1nc(NCc2ccc(F)cc2)ccc1NC(=O)Cc1ccc(C(F)(F)F)c(F)c1 [Compound 3, N-[2-Dimethylamino-6-(4-fluoro-benzylamino)-pyridin-3-yl]-2-(3-fluoro-4-trifluoromethyl-phenyl)-acetamide], the “IK (%)” value falls from 215% to 162%.

First: CN(C)c1nc(NCc2ccc(F)cc2)ccc1NC(=O)CCc1cccc(F)c1 [Compound 5, N-[2-Dimethylamino-6-(4-fluoro-benzylamino)-pyridin-3-yl]-3-(3-fluoro-phenyl)-propionamide]
Second: CN(C)c1nc(NCc2ccc(F)cc2)ccc1NC(=O)CC(C)(C)C [Compound 8, N-[2-Dimethylamino-6-(4-fluoro-benzylamino)-pyridin-3-yl]-3,3-dimethyl-butyramide]
The “IK (%)” value of the first is lower: 174% for the first, 233% for the second.
